According to ChEMBL document CHEMBL1150475, “Synthesis and biological activity of new optically active 2-oxaisocephems: 3-(N-alkylpyridinium-4-thio)methyl derivatives” (1994):
In brackets after ≈: the same amount, converted by molar mass.

Columns and labels:
Escherichia coli [1] = experiment: Antibacterial activity against gram- negative Escherichia coli NIHJ JC-2; type: functional
Mus musculus [2] = species: Mus musculus; experiment: Antibacterial activity against mice infected with Escherichia coli No.29; type: functional
Pseudomonas aeruginosa [3] = experiment: Antibacterial activity against gram- negative Pseudomonas aeruginosa ATCC 10145; type: functional
Staphylococcus aureus [4] = experiment: Antibacterial activity against gram- positive Staphylococcus aureus FDA 209P; type: functional
Staphylococcus aureus [5] = experiment: Antibacterial activity against gram- positive Staphylococcus aureus Methicillin resistant Staphylococcus aureus 57; type: functional
Escherichia coli [6] = experiment: Antibacterial activity against Escherichia coli No.29
Staphylococcus aureus [7] = experiment: Antibacterial activity against Staphylococcus aureus Smith.
Staphylococcus aureus [8] = experiment: Antibacterial activity against gram- positive Staphylococcus aureus MRSA 57; type: functional
Escherichia coli [9] = experiment: Antibacterial activity against Escherichia coli NIHJ JC-2; type: functional
Pseudomonas aeruginosa [10] = experiment: Antibacterial activity against Pseudomonas aeruginosa ATCC 10145; type: functional
Staphylococcus aureus [11] = experiment: Antibacterial activity against Staphylococcus aureus Smith
Mus musculus [12] = species: Mus musculus; experiment: Antibacterial activity against mice infected with MRSA 5038; type: functional
Staphylococcus aureus [13] = experiment: microbe, parasite or virus in culture
Description: Antibacterial activity against Methicillin resistant Staphylococcus aureus 5038

Staphylococcus aureus [14] = experiment: microbe, parasite or virus in culture; remark: listed apart in the source
Description: Antibacterial activity against Methicillin resistant Staphylococcus aureus 5120

Staphylococcus aureus [15] = experiment: microbe, parasite or virus in culture; remark: listed apart in the source
Description: Antibacterial activity against Methicillin resistant Staphylococcus aureus 5129

Mus musculus [16] = species: Mus musculus; experiment: Antibacterial activity against mice infected with MRSA 5120 challenged with a dose of 7.6*10e7 cells/mouse; type: functional
Mus musculus [17] = species: Mus musculus; experiment: Antibacterial activity against mice infected with Staphylococcus aureus Smith.; type: functional
Mus musculus [18] = species: Mus musculus; experiment: Antibacterial activity against mice infected with Escherichia coli No.29 challenged with a dose of 1.35*10e6 cells/mouse; type: functional
Mus musculus [19] = species: Mus musculus; experiment: Antibacterial activity against mice infected with MRSA 5038 challenged with a dose of 1*10e7 cells/mouse; type: functional
Mus musculus [20] = species: Mus musculus; experiment: Antibacterial activity against mice infected with MRSA 5129 challenged with a dose of 1.31*10e8 cells/mouse; type: functional
Mus musculus [21] = species: Mus musculus; experiment: Antibacterial activity against mice infected with Staphylococcus aureus Smith challenged with a dose of 1.32*10e7 cells/mouse; type: functional
Pseudomonas aeruginosa [22] = experiment: Antibacterial activity against gram- negative Pseudomonas […] ATCC 10145; type: functional
Staphylococcus aureus [23] = experiment: Antibacterial activity against MRSA 5129
Staphylococcus aureus [24] = experiment: Antibacterial activity against MRSA 5038.
Escherichia coli [25] = experiment: Antibacterial activity against Escherichia coli No.29; remark: listed apart in the source
Staphylococcus aureus [26] = experiment: Antibacterial activity against Staphylococcus aureus Smith.; remark: listed apart in the source

Question: For `CO[C@@]1(NC(=O)CSC(F)F)C(=O)N2C(C(=O)O)=C(CSc3nnnn3CCO)CO[C@@H]21` [FLOMOXEF], which MIC (Escherichia coli [1]) is on record?
Answer: Its MIC is 0.1 µg/mL (≈ 0.201 µM).

Question: And the ED50 (Mus musculus [2])?
Answer: The ED50 was 0.43 mg/kg.

Question: And the MIC (Pseudomonas aeruginosa [3])?
Answer: Its MIC is > 100 µg/mL.

Question: And the MIC (Staphylococcus aureus [4])?
Answer: Its MIC is 0.2 µg/mL (≈ 0.403 µM).

Question: What about the MIC (Staphylococcus aureus [5]) of the same compound?
Answer: Its MIC is 25 µg/mL (≈ 50.4 µM).

Question: What about the MIC (Escherichia coli [6]) of the same compound?
Answer: Its MIC is 0.1 µg/mL (≈ 0.201 µM).

Question: What about the MIC (Staphylococcus aureus [7]) of the same compound?
Answer: Its MIC is 0.39 µg/mL (≈ 0.786 µM).

Question: What does the source list for `CO/N=C(/C(=O)N[C@@H]1C(=O)N2C(C(=O)O)=C(CSc3cc[n+](CC(C)=O)cc3)OC[C@H]12)c1csc(N)n1.O=S(=O)([O-])O`?
Answer: MIC (Escherichia coli [1]): < 0.025 µg/mL; MIC (Pseudomonas aeruginosa [3]): 12.5 µg/mL; MIC (Staphylococcus aureus [4]): 0.39 µg/mL; MIC (Staphylococcus aureus [8]): 100 µg/mL

Question: What does the source list for `CN[C@H](CC(C)C)C(=O)N[C@H]1C(=O)N[C@@H](CC(N)=O)C(=O)N[C@H]2C(=O)N[C@H]3C(=O)N[C@H](C(=O)N[C@H](C(=O)O)c4cc(O)cc(O)c4-c4cc3ccc4O)[C@H](O)c3ccc(c(Cl)c3)Oc3cc2cc(c3O[C@@H]2O[C@H](CO)[C@@H](O)[C@H](O)[C@H]2O[C@H]2C[C@](C)(N)[C@H](O)[C@H](C)O2)Oc2ccc(cc2Cl)[C@H]1O` [VANCOMYCIN]?
Answer: MIC (Escherichia coli [9]): > 100 µg/mL; MIC (Pseudomonas aeruginosa [10]): > 100 µg/mL; MIC (Staphylococcus aureus [11]): 0.78 µg/mL (≈ 0.538 µM); ED50 (Mus musculus [12]): 2.7 mg/kg; MIC (Staphylococcus aureus [13]): 1.56 µg/mL (≈ 1.08 µM); MIC (Staphylococcus aureus [14]): 0.78 µg/mL (≈ 0.538 µM); MIC (Staphylococcus aureus [15]): 0.78 µg/mL (≈ 0.538 µM)

Question: Which results are given for `CCC(=O)C[n+]1ccc(SCC2=C(C(=O)O)N3C(=O)[C@@H](NC(=O)/C(=N/OC4CCCC4)c4csc(N)n4)[C@H]3CO2)cc1.O=S(=O)([O-])O`?
Answer: MIC (Escherichia coli [1]): 0.39 µg/mL; ED50 (Mus musculus [2]): 0.15 mg/kg; ED50 (Mus musculus [16]): 1 mg/kg; ED50 (Mus musculus [17]): 0.22 mg/kg; MIC (Pseudomonas aeruginosa [3]): 6.25 µg/mL; MIC (Staphylococcus aureus [4]): 0.2 µg/mL; MIC (Staphylococcus aureus [8]): 6.25 µg/mL; MIC (Escherichia coli [6]): 0.39 µg/mL; MIC (Staphylococcus aureus [7]): 0.2 µg/mL

Question: For `C[n+]1ccc(SCC2=C(C(=O)O)N3C(=O)[C@@H](NC(=O)/C(=N/OC4CCCC4)c4csc(N)n4)[C@H]3CO2)cc1.O=S(=O)([O-])O`, which MIC (Escherichia coli [1]) is on record?
Answer: Its MIC is 0.39 µg/mL.

Question: What about the ED50 (Mus musculus [18]) of the same compound?
Answer: Its ED50 is 0.09 mg/kg.

Question: What about the ED50 (Mus musculus [19]) of the same compound?
Answer: The ED50 was 3.4 mg/kg.

Question: What about the ED50 (Mus musculus [20]) of the same compound?
Answer: The ED50 was 3.91 mg/kg.

Question: What about the ED50 (Mus musculus [21]) of the same compound?
Answer: The ED50 was 0.08 mg/kg.

Question: What about the MIC (Pseudomonas aeruginosa [22]) of the same compound?
Answer: Its MIC is 3.13 µg/mL.

Question: And the MIC (Staphylococcus aureus [4])?
Answer: The MIC was 0.05 µg/mL.

Question: What about the MIC (Staphylococcus aureus [8]) of the same compound?
Answer: Its MIC is 3.13 µg/mL.

Question: And the MIC (Staphylococcus aureus [23])?
Answer: The MIC was 6.25 µg/mL.

Question: What about the MIC (Staphylococcus aureus [24]) of the same compound?
Answer: Its MIC is 3.13 µg/mL.

Question: And the MIC (Escherichia coli [25])?
Answer: Its MIC is 0.39 µg/mL.

Question: And the MIC (Staphylococcus aureus [26])?
Answer: The MIC was 0.39 µg/mL.

Question: Which results are given for `CO/N=C(/C(=O)N[C@@H]1C(=O)N2C(C(=O)O)=C(CSc3cc[n+](C)cc3)OC[C@H]12)c1csc(N)n1.O=S(=O)([O-])O`?
Answer: MIC (Escherichia coli [1]): < 0.025 µg/mL; MIC (Pseudomonas aeruginosa [3]): 6.25 µg/mL; MIC (Staphylococcus aureus [4]): 0.2 µg/mL; MIC (Staphylococcus aureus [8]): 50 µg/mL
